{"source": "patent US20110166149A1", "about": "“PTERIDINE DERIVATIVES FOR TREATING RESPIRATORY DISEASE” (TARGEGEN INC., priority 2008, published 2011)", "key": {"[1]": {"assay": "Estimated lung exposure level calculated from respirable dose (Example 1)", "details": "30 minute exposure assumed, mouse", "method": "Estimated lung exposure levels were calculated based on the following assumptions: respirable dose collected from 7 stage impactor; 30 minute exposure time; mouse minute volume of 23 mL/min; mouse weight of 25 g; mouse lung weight of 250 mg (1% of body weight)."}, "[2]": {"assay": "Inhalation exposure: Compound A concentration in lung, plasma and BALF (Example 2)", "type": "in vivo, BALB/c mice", "details": "for AUC(0-inf) / Cmax / Tmax / AUC(0-t) / concentration at 0.083 h / concentration at 0.25 h / concentration at 0.5 h / concentration at 1 h / concentration at 2 h / concentration at 4 h / concentration at 8 h / concentration at 12 h / concentration at 24 h: male, BALB/c; for AUC(0-inf) / Cmax / Tmax / AUC(0-t): inhaled or intranasal; for AUC(0-t): read-out: AUC(0-24); for concentration at 0.083 h / concentration at 0.25 h / concentration at 0.5 h / concentration at 1 h / concentration at 2 h / concentration at 4 h / concentration at 8 h / concentration at 12 h / concentration at 24 h: mouse, inhaled, mice, 30 min inhalation", "method": "A series of compositions for pulmonary delivery were prepared by making a 20% suspension of compound A in a 5% tyloxapol solution in water. Particle size reduction was achieved using a colloid mill (magicLAB®, MK module, for 6 hours @ 12,000 rpm, while maintaining a temperature below 50° C.). Samples at 4% w/v compound A were prepared by dilution with DI water.\nLow (0.02 mg/L), mid (0.07 mg/L), and high (0.20 mg/L) target aerosol concentrations 0.3% Compound A/0.075% tyloxapol, 0.6% Compound A/0.15% tyloxapol, and 1.5% Compound A/0.375% tyloxapol suspensions were used. These low, mid, and high target formulations were prepared as follows: […]\n4% compound A and 1% tyloxapol were removed from refrigeration and approximately 2.25, 4.5, and 12 mL were transferred into clean 50 mL graduated plastic tubes, labeled 0.3% A/0.075% tyloxapol, 0.6% A/0.15% tyloxapol, and 1.5% A/0.375% tyloxapol suspensions and allowed to warm to room temperature. Each was diluted to 20 mL with ultra pure water and vortexed until completely mixed. Each formulation was made the morning of exposure to alleviate any storing/stability issues.\nEighty-seven (87) male BALB/c mice (8 weeks of age on arrival and 18.6-24.6 g on exposure day) were purchased from Charles River Laboratories (Raleigh, N.C.). The three animals with the lowest body weights and the three with the highest body weights were excluded from the study on the day of randomization. The remaining eighty-one (81) animals were assigned to the study. Temperatures and relative humidity (RH) in animal housing areas were within the target range specified in the protocol.\nAnimals were exposed to one of three concentrations of Compound A aerosols for a target of 30 min.\nThe actual concentrations of test article in the exposure atmospheres were determined by chemical analysis of timed filter samples collected directly from a nose-only exposure port during exposure. In addition, one impactor sample was obtained to verify particle size distribution (PSD), which is characterized by mass median aerodynamic diameter (MMAD) and geometric standard deviation (GSD). The filters and impactor stages were analyzed chemically by LRRI and are described below."}, "[3]": {"details": "0.15 mg/kg, mouse BALF, aerosol conc. 0.02 mg/L"}, "[4]": {"details": "0.27 mg/kg, mouse BALF, aerosol conc. 0.07 mg/L"}, "[5]": {"details": "0.7 mg/kg, mouse BALF, aerosol conc. 0.2 mg/L"}, "[6]": {"details": "mouse lung, aerosol conc. 0.02 mg/L"}, "[7]": {"details": "mouse lung, aerosol conc. 0.07 mg/L"}, "[8]": {"details": "mouse lung, aerosol conc. 0.2 mg/L"}, "[9]": {"details": "BALF, nominal aerosol 0.02 mg/L, read-out: Compound A concentration BALF"}, "[10]": {"details": "BALF, nominal aerosol 0.07 mg/L, read-out: Compound A concentration BALF"}, "[11]": {"details": "BALF, nominal aerosol 0.2 mg/L, read-out: Compound A concentration BALF"}, "[12]": {"details": "lung, nominal aerosol 0.02 mg/L, read-out: Compound A concentration Lung"}}, "note": "Read-outs that look alike come from different tables or passages of the source."}
{"smiles": "Nc1nc(N)c2nc(-c3cccc(O)c3)c(-c3cccc(O)c3)nc2n1", "note": "[Compound A, 6,7-bis(3-hydroxyphenyl)-pteridine-2,4-diamine]", "values": [{"measurement": "Estimated lung conc.", "setting": "[1]; 0.004% Compound A suspension", "value": 0.1, "unit": "µg/g"}, {"measurement": "Estimated lung conc.", "setting": "[1]; 0.04% Compound A suspension", "value": 1.4, "unit": "µg/g"}, {"measurement": "Estimated lung conc.", "setting": "[1]; 0.4% Compound A suspension", "value": 11, "unit": "µg/g"}, {"measurement": "Estimated lung conc.", "setting": "[1]; 4% Compound A suspension", "value": 75, "unit": "µg/g"}, {"measurement": "time course of concentration in lung and BALF", "setting": "[2]; FIGS. 1 and 2, higher concentrations for mice exposed to higher doses", "value": "dose dependent"}, {"measurement": "Maximum concentration in the BALF", "setting": "[2]; Group A (0.02 mg/L)", "value": 1190, "unit": "ng/mL"}, {"measurement": "Maximum concentration in the lung", "setting": "[2]; Group A (0.02 mg/L)", "value": 20.9, "unit": "µg/g"}, {"measurement": "time of maximum concentration in the BALF", "setting": "[2]; Group A (0.02 mg/L)", "value": 0.25, "unit": "h"}, {"measurement": "time of maximum concentration in the lung", "setting": "[2]; Group A (0.02 mg/L)", "value": 0.08, "unit": "h"}, {"measurement": "Maximum concentration in the BALF", "setting": "[2]; Group B (0.07 mg/L)", "value": 2140, "unit": "ng/mL"}, {"measurement": "time of maximum concentration in the BALF", "setting": "[2]; Group B (0.07 mg/L)", "value": 0.08, "unit": "h"}, {"measurement": "time of maximum concentration in the lung", "setting": "[2]; Group B (0.07 mg/L)", "value": 2.00, "unit": "h"}, {"measurement": "Maximum concentration in the BALF", "setting": "[2]; Group C (0.2 mg/L)", "value": 5670, "unit": "ng/mL"}, {"measurement": "time of maximum concentration in the BALF", "setting": "[2]; Group C (0.2 mg/L)", "value": 0.25, "unit": "h"}, {"measurement": "time of maximum concentration in the lung", "setting": "[2]; Group C (0.2 mg/L)", "value": 0.50, "unit": "h"}, {"measurement": "plasma levels", "setting": "[2]; all aerosol concentrations, generally", "value": "< LLOQ"}, {"measurement": "AUC(0-inf)", "setting": "[2]; [3]", "value": 21700, "unit": "ng·h/mL"}, {"measurement": "Cmax", "setting": "[2]; [3]", "value": 1190, "unit": "ng/mL"}, {"measurement": "Tmax", "setting": "[2]; [3]", "value": 15, "unit": "min"}, {"measurement": "AUC(0-t)", "setting": "[2]; [3]", "value": 8850, "unit": "ng·h/mL"}, {"measurement": "AUC(0-inf)", "setting": "[2]; [4]", "value": 30400, "unit": "ng·h/mL"}, {"measurement": "Cmax", "setting": "[2]; [4]", "value": 2140, "unit": "ng/mL"}, {"measurement": "Tmax", "setting": "[2]; [4]", "value": 4.8, "unit": "min"}, {"measurement": "AUC(0-t)", "setting": "[2]; [4]", "value": 18100, "unit": "ng·h/mL"}, {"measurement": "AUC(0-inf)", "setting": "[2]; [5]", "value": 54300, "unit": "ng·h/mL"}, {"measurement": "Cmax", "setting": "[2]; [5]", "value": 5670, "unit": "ng/mL"}, {"measurement": "Tmax", "setting": "[2]; [5]", "value": 15, "unit": "min"}, {"measurement": "AUC(0-t)", "setting": "[2]; [5]", "value": 37200, "unit": "ng·h/mL"}, {"measurement": "Cmax", "setting": "[2]; [6]", "value": 20900, "unit": "ng/g"}, {"measurement": "Tmax", "setting": "[2]; [6]", "value": 4.8, "unit": "min"}, {"measurement": "Cmax", "setting": "[2]; [7]", "value": 22700, "unit": "ng/g"}, {"measurement": "Tmax", "setting": "[2]; [7]", "value": 120, "unit": "min"}, {"measurement": "Cmax", "setting": "[2]; [8]", "value": 67200, "unit": "ng/g"}, {"measurement": "Tmax", "setting": "[2]; [8]", "value": 30, "unit": "min"}, {"measurement": "concentration at 0.083 h", "setting": "[2]; [9]", "value": "896 ± 41.7", "unit": "ng/mL"}, {"measurement": "concentration at 0.25 h", "setting": "[2]; [9]", "value": "1190 ± 35.4", "unit": "ng/mL"}, {"measurement": "concentration at 0.5 h", "setting": "[2]; [9]", "value": "457 ± 219", "unit": "ng/mL"}, {"measurement": "concentration at 1 h", "setting": "[2]; [9]", "value": "831 ± 288", "unit": "ng/mL"}, {"measurement": "concentration at 2 h", "setting": "[2]; [9]", "value": "813 ± 117", "unit": "ng/mL"}, {"measurement": "concentration at 4 h", "setting": "[2]; [9]", "value": "541 ± 409", "unit": "ng/mL"}, {"measurement": "concentration at 8 h", "setting": "[2]; [9]", "value": "286 ± 156", "unit": "ng/mL"}, {"measurement": "concentration at 12 h", "setting": "[2]; [9]", "value": "296 ± 19.1", "unit": "ng/mL"}, {"measurement": "concentration at 24 h", "setting": "[2]; [9]", "value": "223 ± 91.2", "unit": "ng/mL"}, {"measurement": "concentration at 0.083 h", "setting": "[2]; [10]", "value": "2140 ± 1340", "unit": "ng/mL"}, {"measurement": "concentration at 0.25 h", "setting": "[2]; [10]", "value": "1190 ± 270", "unit": "ng/mL"}, {"measurement": "concentration at 0.5 h", "setting": "[2]; [10]", "value": "1350 ± 559", "unit": "ng/mL"}, {"measurement": "concentration at 1 h", "setting": "[2]; [10]", "value": "1250 ± 359", "unit": "ng/mL"}, {"measurement": "concentration at 2 h", "setting": "[2]; [10]", "value": "930 ± 818", "unit": "ng/mL"}, {"measurement": "concentration at 4 h", "setting": "[2]; [10]", "value": "1310 ± 1010", "unit": "ng/mL"}, {"measurement": "concentration at 8 h", "setting": "[2]; [10]", "value": "800 ± 225", "unit": "ng/mL"}, {"measurement": "concentration at 12 h", "setting": "[2]; [10]", "value": "569 ± 142", "unit": "ng/mL"}, {"measurement": "concentration at 24 h", "setting": "[2]; [10]", "value": "512 ± 128", "unit": "ng/mL"}, {"measurement": "concentration at 0.083 h", "setting": "[2]; [11]", "value": "3150 ± 110", "unit": "ng/mL"}, {"measurement": "concentration at 0.25 h", "setting": "[2]; [11]", "value": "5670 ± 2550", "unit": "ng/mL"}, {"measurement": "concentration at 0.5 h", "setting": "[2]; [11]", "value": "2220 ± 1910", "unit": "ng/mL"}, {"measurement": "concentration at 1 h", "setting": "[2]; [11]", "value": "2570 ± 2030", "unit": "ng/mL"}, {"measurement": "concentration at 2 h", "setting": "[2]; [11]", "value": "3190 ± 2580", "unit": "ng/mL"}, {"measurement": "concentration at 4 h", "setting": "[2]; [11]", "value": "3350 ± 687", "unit": "ng/mL"}, {"measurement": "concentration at 8 h", "setting": "[2]; [11]", "value": "1370 ± 185", "unit": "ng/mL"}, {"measurement": "concentration at 12 h", "setting": "[2]; [11]", "value": "1050 ± 799", "unit": "ng/mL"}, {"measurement": "concentration at 24 h", "setting": "[2]; [11]", "value": "694 ± 56", "unit": "ng/mL"}, {"measurement": "concentration at 0.083 h", "setting": "[2]; [12]", "value": "20900 ± 13200", "unit": "ng/g"}, {"measurement": "concentration at 0.25 h", "setting": "[2]; [12]", "value": "10100 ± 1390", "unit": "ng/g"}]}
